In ChEMBL document CHEMBL1146705, “Resistance towards exonucleases of dinucleotides with stereochemically altered internucleotide phosphate bonds” (Bioorg Med Chem Lett, 2004):

Experiments:
[1] = Vmax towards phosphodiesterase 1
[2] = Ratio of Vmax to that of Km towards phosphodiesterase I (PDE I)
[3] = Ratio of Vmax to that of Km towards phosphodiesterase II (PDE II)
[4] = Affinity for phosphodiesterase 1
[5] = Vmax towards phosphodiesterase I and II; NS = Non-substrate

Nc1ccn(C2C[C@@H](O)[C@@H](COP(=O)(O)O[C@H]3[C@@H](CO)OC[C@@H]3n3cnc4c(N)ncnc43)O2)c(=O)n1 (some centres undefined)
Vmax [1]: 19.2 mM/min
Ratio [2]: 15.4
Ratio [3]: 4.5
Km [4]: 1250 µM

Nc1ccn(C2C[C@@H](O)[C@@H](COP(=O)(O)O[C@@H]3CC(n4cnc5c(N)ncnc54)O[C@@H]3CO)O2)c(=O)n1 (some centres undefined)
Vmax [1]: 141 mM/min
Ratio [2]: 52.4
Ratio [3]: 21.1
Km [4]: 2700 µM

Nc1ccn(C2C[C@@H](O)[C@@H](COP(=O)(O)O[C@@H]3CC(n4ccc(N)nc4=O)O[C@@H]3CO)O2)c(=O)n1 (some centres undefined)
Vmax [1]: 1450 mM/min
Ratio [2]: 1610
Ratio [3]: 87.8
Km [4]: 900 µM

Nc1ccn([C@H]2C[C@H](O)[C@@H](COP(=O)(O)O[C@H]3[C@H](n4cnc5c(N)ncnc54)CO[C@@H]3COP(=O)(O)O)O2)c(=O)n1
Vmax [5]: Non substrate

Nc1ccn(C2C[C@@H](OP(=O)(O)OC[C@H]3OC[C@H](n4ccc(N)nc4=O)[C@H]3O)[C@@H](COP(=O)(O)O)O2)c(=O)n1 (some centres undefined)
Vmax [5]: Non substrate
